Results taken from US20220324770A1, “NITRIFICATION INHIBITORS” (The University of Melbourne, priority 2019, published 2022).

How the values were obtained:
Terang soil = test: Soil microcosm incubation (nitrification of applied ammonium), Terang soil; conditions: Terang soil pH 6.5, 25° C., L-DMPP 1.5 mol %; for Nitrified NH4+—N (%) Day 3: compounds 10 mol % of applied N, (NH4)2SO4 100 mg N per kg soil; for Nitrified NH4+—N (%) Day 7 / Nitrified NH4+—N (%) Day 14 / Nitrified NH4+—N (%) Day 28: compounds 10 mol %
Protocol: (§1) The soil used in this study was collected from four different locations in Victoria, Australia: (i) a wheat cropping soil from Horsham (36° 45′S, 142° 07′ E), (ii) a rotational cropping soil from Dahlen (36° 37′S, 142° 09′ E), (iii) a vegetable growing soil from Clyde (38° 08′S, 145° 20′ E), and (iv) a pasture soil from Terang (38° 15′S, 142° 52′E). In addition, a sugarcane cropping soil from South Johnstone in northern Queensland (17° 34′S, 145° 57′ E) was also studied. The water content of the soil was calculated before commencing each experiment, from samples that were oven-dried to constant weight. The soil's water-filled pore space (WFPS) was in the range 52%-61%, which is within the recommended 50-70% range for microbial activity due to oxygen and nutrient availability (Fichtner, T., et al., Applied Sciences, 2019, 9, 496).
(§2) Soil microcosm incubations were carried out in 250 ml polypropylene specimen containers (Sarstedt, Germany), containing 18.24 g oven dry-weight equivalent of soil. Microcosms were re-wetted and pre-incubated at the test temperature for seven days to revive soil microbial activity. Following pre-incubation, the remaining volume to reach the desired water-filled pore spaces (WFPS %) was applied as one of the following treatment solutions; (NH4)2SO4(Control), (NH4)2SO4+DMPP, or (NH4)2SO4+one of Compounds 1-23. Each treatment was applied in triplicate per soil type, so that n=3 at each time point.
(§3) Treatment solutions were prepared such that each microcosm received (NH4)2SO4 at a rate of 100 mg N per kg soil, Compounds 1-23 at 10 mol % of applied N, or DMPP at one of 1.5, 3.6 or 10 mol % of applied N, referred to as L-DMPP, M-DMPP or H-DMPP respectively.
(§4) The microcosms were incubated for 0, 3, 7, 14, 21 or 28 days, where day 0 samples were extracted following 1-hour incubation post-treatment. Soil microcosms were aerated and moisture levels were replenished based on weight loss every few days throughout the incubation period.
(§5) At the end of each incubation period, soil microcosms were destructively sampled by treatment with 2M KCl (100 mL). After shaking for 1 hour, soil-KCl solutions were filtered (Whatman 42) before storing the filtrates at −20° C. until the conclusion of the experiment. All KCl extracts were then analysed by Segmented Flow Analysis (San++, Skalar, Breda, The Netherlands) for the concentration of nitrogen from ammonium (NH4^+—N) and nitrogen from NO3 and NO2 (NOx^−—N) after appropriate dilutions. Results are reported as the mean of three replicates, errors reported are standard errors of the mean.
(§6) Nitrification calculations were performed as previously reported (Aulakh, M., et al., Biology and Fertility of Soils 2001, 33, 258-263; Mahmood, T., et al., Soil Research 2017, 55, 715-722) without correction for the initial baseline concentrations of NH4^+—N or NO3^− N in the untreated soil. For each treatment nitrified NH4^+—N (%) was calculated according to eqn. 1:
(§7) where [NH4^+—N]0 is the NH4^+—N concentration (in mg N kg^−1 soil) of the soil on day 0 and [NH4^+—N]t is the NH4^+—N concentration (in mg N kg^−1 soil) of the soil at a given time point t.

Horsham soil = test: Soil microcosm incubation (nitrification of applied ammonium), Horsham soil
Protocol: as §1, §2, §3, §4, §5, §6, §7
(§8) NOx^−—N accumulation rates (mg NOx^−—N/kg soil/day) over the 28-day incubation experiments were calculated for each treatment as in the following (eqn. 2):
(§9) [NOx^−—N]t=0 and [NOx^−—N]t=28 are the combined concentrations of nitrite (NO2) and nitrate (NO3) in the soil (in mg N kg^−1 soil) on day 0 and day 28, respectively.

Dahlen soil = test: Soil microcosm incubation (nitrification of applied ammonium), Dahlen soil; conditions: for Nitrified NH4+—N (%) Day 3 / Nitrified NH4+—N (%) Day 7 / Nitrified NH4+—N (%) Day 14 / Nitrified NH4+—N (%) Day 21 / Nitrified NH4+—N (%) Day 28: 10 mol %
Protocol: as §1, §2, §3, §4, §5, §6, §7, §8, §9

[1] = Horsham soil pH 8.8, 25° C., 10 mol %
[2] = Horsham soil pH 8.8, 35° C., 10 mol %
[3] = Table 4, Dahlen soil pH 7.3, 25° C.
[4] = Table 4, Dahlen soil pH 7.3, 35° C.

CCCCCc1cn(CCCC)nn1 [Compound 1, 1-butyl-4-pentyl-1H-1,2,3-triazole]
Nitrified NH4+—N (%) Day 3 (Terang soil): 13.6 ± 3.1%
Nitrified NH4+—N (%) Day 7 (Terang soil): 43.1 ± 3.7%
Nitrified NH4+—N (%) Day 14 (Terang soil): 85.1 ± 4.5%
Nitrified NH4+—N (%) Day 28 (Terang soil): 100 ± 4.2%

CCCCc1cn(CCCC)nn1 [Compound 2, 1,4-butyl-1H-1,2,3-triazole]
Nitrified NH4+—N (%) Day 3 (Horsham soil; Horsham soil pH 8.8, 25° C., inhibitors 10 mol % of applied N): 12.2 ± 8.6%
Nitrified NH4+—N (%) Day 7 (Horsham soil; [1]): 17.9 ± 6.9%
Nitrified NH4+—N (%) Day 14 (Horsham soil; [1]): 44.5 ± 7.2%
Nitrified NH4+—N (%) Day 21 (Horsham soil; [1]): 66.6 ± 8.9%
Nitrified NH4+—N (%) Day 28 (Horsham soil; [1]): 90.4 ± 9.7%
Nitrified NH4+—N (%) Day 3 (Horsham soil; [2]): −3.3 ± 5.9%
Nitrified NH4+—N (%) Day 7 (Horsham soil; [2]): 8.8 ± 5.5%
Nitrified NH4+—N (%) Day 14 (Horsham soil; [2]): 40.3 ± 5.4%
Nitrified NH4+—N (%) Day 21 (Horsham soil; [2]): 53.8 ± 9.4%
Nitrified NH4+—N (%) Day 28 (Horsham soil; [2]): 71.6 ± 22.9%
retaining NH4+ vs uninhibited control treatment (Horsham soil; Horsham soil, 25° C., after 28 days): to a lesser extent
NOx−—N accumulation: effect of temperature (25° C. vs 35° C.) (Horsham soil; Horsham soil, 28-day incubation): lower at the elevated temperature
nitrification rates vs uninhibited control treatment (Horsham soil; Horsham soil, 35° C.): lower nitrification rates than the uninhibited control treatment
Nitrified NH4+—N (%) Day 3 (Terang soil): 27.2 ± 2.0%
Nitrified NH4+—N (%) Day 7 (Terang soil): 64.8 ± 2.3%
Nitrified NH4+—N (%) Day 14 (Terang soil): 95.6 ± 2.8%
Nitrified NH4+—N (%) Day 28 (Terang soil): 100 ± 2.7%
retaining NH4+—N vs uninhibited control treatment and DMPP (Dahlen soil; Dahlen soil, 25° C., after 28 days): performed statistically better
retaining NH4+ vs both DMPP treatment and control treatment (Dahlen soil; Dahlen soil, 35° C., after 28 days): performed statistically better
Nitrified NH4+—N (%) Day 3 (Dahlen soil; [3]): 7.5 ± 5.2%
Nitrified NH4+—N (%) Day 7 (Dahlen soil; [3]): 21.2 ± 12.2%
Nitrified NH4+—N (%) Day 14 (Dahlen soil; [3]): 20.3 ± 21.6%
Nitrified NH4+—N (%) Day 21 (Dahlen soil; [3]): 32.9 ± 18.4%
Nitrified NH4+—N (%) Day 28 (Dahlen soil; [3]): 37.6 ± 11.0%
Nitrified NH4+—N (%) Day 3 (Dahlen soil; [4]): 1.7 ± 3.3%
Nitrified NH4+—N (%) Day 7 (Dahlen soil; [4]): −1.3 ± 1.9%
Nitrified NH4+—N (%) Day 14 (Dahlen soil; [4]): 2.0 ± 2.4%
Nitrified NH4+—N (%) Day 21 (Dahlen soil; [4]): 29.6 ± 3.6%
Nitrified NH4+—N (%) Day 28 (Dahlen soil; [4]): 22.4 ± 1.5%
